Reference: patent publication US12685729B2, “Use of 2,3,5-substituted thiophene compound for enhancement of radiotherapy” (Pharos iBio Co., Ltd., priority 2018, dated 2026)

Tests used:
FaDu cell line = test: Tumor volume in mice transplanted with FaDu head and neck cancer cell line after PHI-101 and radiation; type: in vivo; conditions: FaDu xenograft mice; PHI-101 20 mg/kg intraperitoneally 3 h before and 24, 48, 72, 96 h after 3 Gy 60Co γ-ray, repeated three times for 3 weeks; combination
Method: (§1) 6-week-old female Balb/c nu/nu mice (Orient Bio Inc.) and NOD SCID mice (Orient Bio Inc.) were prepared. The mice were acclimated for 1 week after purchase, and then tumor transplants were prepared. During the animal experiment, cages were replaced once a week, and drinking water and feed were often checked to ensure that they were always sufficiently supplied.
(§2) Each of the tumor cell lines shown in Table 1 below was cultured with DMEM (Dulbecco's Modified Eagle Medium) or RPMI-1640 in a 150-mm culture dish (SPL) under 5% CO2 at 37° C. Then, each tumor cell line was diluted to a density of 1×10^6 cells/100 μl using cold DPBS buffer (Welgene), and kept cold on ice until transplantation. […]
(§3) When each tumor cell line transplanted to the mice in Example 1-2 proliferated and the tumor begun to be visible, the lengths of the longest and shortest diameters of the tumor were measured using digital calipers (Mitutoyo). […]
(§4) The tumor volume was measured at intervals of 2 to 4 days, and was calculated using the following equation: V=½(L×W^2) • V=volume (mm^3) • L=length [mm], the longest diameter • W=width [mm], the shortest diameter
(§5) The measurement end time was determined based on when the average volume of the control tumor reached about 2,000 mm^3. The data of the measured tumor volume was first organized in Microsoft Excel, and plotted in GraphPad Prism. […]

HCT116 cell line = test: Tumor volume in mice transplanted with HCT116 colorectal cancer cell line after PHI-101 and radiation; type: in vivo; conditions: HCT116 xenograft mice; PHI-101 20 mg/kg intraperitoneally 24 h and 3 h before and 24 h after 3 Gy X-ray, repeated twice at one-week interval; combination
Method: as §1, §2, §3, §4, §5

JIMT-1 cell line = test: Tumor volume in mice transplanted with JIMT-1 breast cancer cell line after PHI-101 and radiation; type: in vivo; conditions: JIMT-1 xenograft mice; PHI-101 20 mg/kg intraperitoneally 24 h and 3 h before and 24, 48, 72 h after 3 Gy 60Co γ-ray, repeated three times for 3 weeks; combination
Method: as §1, §2, §3, §4, §5

[1] = tested on: MDA-MB-468 breast cancer cell line; test: Clonogenic assay after PHI-101 and radiation, MDA-MB-468; type: cell-based; conditions: PHI-101 0.1, 0.2 or 0.5 μM, 0, 1, 2 or 3 Gy 3 hours after treatment, colonies after 10 days
Method: (§6) Whether the PHI-101 compound can act as a radiotherapy sensitizer for breast cancer was evaluated using clonogenic assay.
(§7) Specifically, each of the breast cancer cell lines shown in Table 2 below was added to DMEM medium in a 60-mm dish at a density of 300 cells, and treated with PHI-101 at a concentration of 0.1, 0.2 or 0.5 μM. As a control, DMSO was used.
(§8) 3 hours after PHI-101 treatment, the cells were irradiated with radiation having an intensity of 0, 1, 2 or 3 Gy. Next, the cells were cultured under 5% CO2 at 37° C. for 10 days, and then the formed colonies were stained with 0.4% crystal violet. Then, the colonies were counted and the surviving fraction of the cells was calculated. The results of calculating the surviving fraction were normalized and fitted to a linear-quadratic model using Kaleidagraph version 351 (Synergy Software, Reading, PA).

[2] = tested on: JIMT-1 breast cancer cell line; test: Clonogenic assay after PHI-101 and radiation, JIMT-1; type: cell-based; conditions: PHI-101 0.1, 0.2 or 0.5 μM, 0, 1, 2 or 3 Gy 3 hours after treatment, colonies after 10 days
Method: as §6, §7, §8

Structure (SMILES): NC(=O)Nc1cc(C#Cc2cccc(F)c2)sc1C(=O)N[C@H]1CCCNC1 [PHI-101, (S)-5-((3-fluorophenyl)ethynyl)-N-(piperidin-3-yl)-3-ureido-thiophene-2-carboxamide]
- tumor volume inhibited compared to when only irradiation was performed (FaDu cell line): 29.16%
- tumor volume reduced compared to that in the control group (FaDu cell line): 37.50%
- tumor volume inhibited compared to when only irradiation was performed (HCT116 cell line): 36.60%
- tumor volume reduced compared to that in the control group (HCT116 cell line): 49.58%
- tumor volume inhibited compared to when only irradiation was performed (JIMT-1 cell line): 20.53%
- tumor volume reduced compared to that in the control group (JIMT-1 cell line): 27.32%
- radiation sensitivity of the breast cancer cells (surviving fraction, linear-quadratic model) [1]: increased in a concentration-dependent manner
- radiation sensitivity of the breast cancer cells (surviving fraction, linear-quadratic model) [2]: increased in a concentration-dependent manner
